The assay deals with human NAMPT enzyme (Homo sapiens (Human), UniProt P43490). As to the kind of experiment: NAMPT enzyme activating effect (in vitro cell-free enzyme assay). Format: biochemical. To be noted: 2 ng/mL human NAMPT enzyme, 1-h incubation at 25° C., fluorescence of NMN derivative. How it is done:
The NAMPT enzyme assay was conducted in accordance with the method of Formentini et al. […] Hereinafter, the procedures will be briefly described. The NAMPT enzyme reaction was carried out using polypropylene 384 well V shaped black plate (Greiner Bio One International GmbH). […] Then, 22 μL of 88% formic acid was added and the mixture was further incubated for 30 min in the dark. The NAMPT enzyme activity was calculated as the difference between fluorescence intensity (Ex 380 nm/Em 450 nm) from the reaction of a test compound treatment group and fluorescence intensity from control reaction free from the NAMPT enzyme. [NAMPT enzyme activity]=[Fluorescence intensity of the test substance treatment group]−[Mean fluorescence intensity of the control reaction free from the NAMPT enzyme] EC50 value of each compound was calculated from the enzyme activities of the compound at various concentrations by using GraphPad Prism software (GraphPad Software) (Table 1)
Sequence of human NAMPT enzyme (P43490 whole entry): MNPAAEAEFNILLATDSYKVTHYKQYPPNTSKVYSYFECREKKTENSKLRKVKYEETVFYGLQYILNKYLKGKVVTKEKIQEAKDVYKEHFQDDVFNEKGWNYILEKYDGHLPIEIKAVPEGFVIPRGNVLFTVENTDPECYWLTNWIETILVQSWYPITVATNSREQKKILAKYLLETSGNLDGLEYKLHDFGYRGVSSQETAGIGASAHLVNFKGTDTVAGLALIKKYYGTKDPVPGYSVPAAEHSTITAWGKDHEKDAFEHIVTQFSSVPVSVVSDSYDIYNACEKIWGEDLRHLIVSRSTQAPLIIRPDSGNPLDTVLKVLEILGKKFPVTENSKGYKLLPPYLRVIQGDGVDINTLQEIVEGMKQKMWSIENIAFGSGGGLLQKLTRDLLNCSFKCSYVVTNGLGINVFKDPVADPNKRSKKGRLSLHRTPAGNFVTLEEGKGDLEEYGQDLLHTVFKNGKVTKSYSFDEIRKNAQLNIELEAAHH
Broadly, the EC50 is the concentration that produces a half-maximal response. Regarding `COc1cccc([C@H]2Oc3cc(NC(=O)NCc4ccncc4)ccc3[C@@H]2C)c1` (relative stereo) [Example 53, N-[(2S*,3S*)-2-(3-Methoxyphenyl)-3-methyl-2,3-dihydro-1-benzofuran-6-yl]-N′-[(pyridin-4-yl)methyl]urea], the half-maximal effective concentration (EC50) is 80 nM.

Take `CC1(c2nc3ccc(NC(=O)NCc4ccncc4)cc3o2)CC1` [Example 3, N-[2-(1-Methylcyclopropyl)-1,3-benzoxazol-6-yl]-N′-[(pyridin-4-yl)methyl]urea]: the half-maximal effective concentration (EC50) was 150 nM.

For the compound `Cn1cc(-c2nc3ccc(NC(=O)NCc4ccncc4)cc3o2)cn1` [Example 4, N-[2-(1-Methyl-1H-pyrazol-4-yl)-1,3-benzoxazol-6-yl]-N′-[(pyridin-4-yl)methyl]urea], the midpoint of the response, the EC50, lay at 980 nM.

`O=C(NCc1cnco1)Nc1ccc2nc(-c3ccccc3)oc2c1` [Example 5, N-[(1,3-Oxazol-5-yl)methyl]-N′-(2-phenyl-1,3-benzoxazol-6-yl)urea] showed a 50% effective concentration (EC50) of 110 nM.

On to `O=C(NCc1ccncc1)Nc1cc2oc(-c3ccccc3)nc2cc1F` [Example 6, N-(5-Fluoro-2-phenyl-1,3-benzoxazol-6-yl)-N′-[(pyridin-4-yl)methyl]urea], for which it took 10 nM to reach a half-maximal effect (EC50).

The compound `O=C(NCc1cnco1)Nc1ccc2nc(-c3ccccc3)nn2c1` [Example 10, N-[(1,3-Oxazol-5-yl)methyl]-N′-(2-phenyl[1,2,4]triazolo[1,5-a]pyridin-6-yl) urea] displayed an EC50 of 140 nM.

Consider `CCCCc1ccccc1-c1nc2ccc(NC(=O)NCc3ccncc3)cn2n1` [Example 11, N-[2-(2-Butylphenyl)[1,2,4]triazolo[1,5-a]pyridin-6-yl]-N′-[(pyridin-4-yl)methyl]urea], for which it took 20 nM to reach a half-maximal effect (EC50).

The compound `O=C(NCc1ccncc1)Nc1ccc2nc(-c3cccn3-c3ccccc3)nn2c1` [Example 12, N-[2-(1-Phenyl-1H-pyrrol-2-yl)[1,2,4]triazolo[1,5-a]pyridin-6-yl]-N′-[(pyridin-4-yl)methyl]urea] showed an EC50 of 230 nM.

`O=C(NCc1ccncc1)Nc1ccc2nc(-c3ccccc3C(F)(F)F)nn2c1` [Example 14, N-[(Pyridin-4-yl)methyl]-N′-{2-[2-(trifluoromethyl)phenyl][1,2,4]triazolo[1,5-a]pyridin-6-yl}urea] came in with an EC50 of 180 nM.

Regarding `O=C(NCc1ccncc1)Nc1ccc2c(C(=O)N3CCCC3)n(-c3ccccc3)nc2c1` [Example 17, N-[2-Phenyl-3-(pyrrolidine-1-carbonyl)-2H-indazol-6-yl]-N′-[(pyridin-4-yl)methyl]urea], a half-maximal response (EC50) required 110 nM.

`CCN(CC)C(=O)c1c2ccc(NC(=O)NCc3ccncc3)cc2nn1-c1ccccc1` [Example 18, N,N-Diethyl-2-phenyl-6-({[(pyridin-4-yl)methyl]carbamoyl}amino)-2H-indazole-3-carboxamide] returned an EC50 of 50 nM.

On to `CCC(=O)N1CC(c2ccccc2)COc2cc(NC(=O)NCc3ccncc3)ccc21` (centres unmarked) [Example 19, N-(3-Phenyl-5-propanoyl-2,3,4,5-tetrahydro-1,5-benzoxazepin-8-yl)-N′-[(pyridin-4-yl)methyl]urea], for which the response was half-maximal at 380 nM (EC50).

`CN(C)C(=O)c1c(-c2ccccc2)nn2cc(NC(=O)NCc3ccncc3)cc(F)c12` [Example 20, 4-Fluoro-N,N-dimethyl-2-phenyl-6-({[(pyridin-4-yl)methyl]carbamoyl}amino)pyrazolo[1,5-a]pyridine-3-carboxamide]: the EC50 was found to be 160 nM.

`CN(C)C(=O)c1c(-c2ccccc2)nn2cc(NC(=O)NCc3ccncc3)ccc12` [Example 23, N,N-Dimethyl-2-phenyl-6-({[(pyridin-4-yl)methyl]carbamoyl}amino)pyrazolo[1,5-a]pyridine-3-carboxamide] gave an EC50 of 110 nM.

In the case of `N#Cc1c(-c2ccccc2)nn2cc(NC(=O)NCc3ccncc3)ccc12` [Example 24, N-(3-Cyano-2-phenylpyrazolo[1,5-a]pyridin-6-yl)-N′-[(pyridin-4-yl)methyl]urea], the half-maximal effective concentration (EC50) came to 50 nM.

`Cc1c(-c2ccccc2)nn2cc(NC(=O)NCc3ccncc3)ccc12` [Example 25, N-(3-Methyl-2-phenylpyrazolo[1,5-a]pyridin-6-yl)-N′-[(pyridin-4-yl)methyl]urea] had an EC50 of 70 nM.

`O=C(NCc1ccncc1)Nc1ccc2cn(-c3ccccc3)nc2c1` [Example 26, N-(2-Phenyl-2H-indazol-6-yl)-N′-[(pyridin-4-yl)methyl]urea] gave an EC50 of 40 nM.

`CS(=O)(=O)c1cccc(-n2cc3ccc(NC(=O)NCc4ccncc4)cc3n2)c1` [Example 27, N-{2-[3-(Methanesulfonyl)phenyl]-2H-indazol-6-yl}-N′-[(pyridin-4-yl)methyl]urea]: the concentration giving a half-maximal response (EC50) is 130 nM.

In turn, `Cc1c2ccc(NC(=O)NCc3ccncc3)cc2nn1-c1ccccc1` [Example 28, N-(3-Methyl-2-phenyl-2H-indazol-6-yl)-N′-[(pyridin-4-yl)methyl]urea] gave an EC50 of 1000 nM.

On to `COCCOc1ccccc1-n1cc2ccc(NC(=O)NCc3ccncc3)cc2n1` [Example 29, N-{2-[2-(2-Methoxyethoxy)phenyl]-2H-indazol-6-yl}-N′-[(pyridin-4-yl)methyl]urea], for which the EC50 came out at 60 nM.

Compound `COc1cccc(-n2cc3ccc(NC(=O)NCc4ccncc4)cc3n2)c1` [Example 30, N-[2-(3-Methoxyphenyl)-2H-indazol-6-yl]-N′-[(pyridin-4-yl)methyl]urea] returned an EC50 of 10 nM.

`O=C(NCc1ccncc1)Nc1cnc2cc(-c3ccccc3)nn2c1` [Example 31, N-(2-Phenylpyrazolo[1,5-a]pyrimidin-6-yl)-N′-[(pyridin-4-yl)methyl]urea] showed an EC50 of 430 nM.

Compound `COc1cc(-n2nc3cc(NC(=O)NCc4ccncc4)ccc3c2C#N)ccn1` [Example 33, N-[3-Cyano-2-(2-methoxypyridin-4-yl)-2H-indazol-6-yl]-N′-[(pyridin-4-yl)methyl]urea] gave a 50% effective concentration (EC50) of 130 nM.

For the compound `CC(=O)N1c2ccc(NC(=O)NCc3ccncc3)cc2CC1c1ccccc1` (centres unmarked) [Example 34, N-(1-Acetyl-2-phenyl-2,3-dihydro-1H-indol-5-yl)-N′-[(pyridin-4-yl)methyl]urea], the EC50 came to 180 nM.

Compound `COC(=O)Cn1c(-c2ccccc2)cc2cc(NC(=O)NCc3ccncc3)ccc21` [Example 35, Methyl [2-phenyl-5-({[(pyridin-4-yl)methyl]carbamoyl}amino)-1H-indol-1-yl]acetate] returned an EC50 of 560 nM.

Turning to `COCCn1c(-c2ccccc2)cc2cc(NC(=O)NCc3ccncc3)ccc21` [Example 36, N-[1-(2-Methoxyethyl)-2-phenyl-1H-indol-5-yl]-N′-[(pyridin-4-yl)methyl]urea], a half-maximal effect (EC50) was put at 130 nM.

`COCCOc1cccc(-c2cc3cc(NC(=O)NCc4ccncc4)ccc3n2C)c1` [Example 37, N-{2-[3-(2-Methoxyethoxy)phenyl]-1-methyl-1H-indol-5-yl}-N′-[(pyridin-4-yl)methyl]urea] displayed a 50% effective concentration (EC50) of 160 nM.

`Cn1c(-c2cccc(S(C)(=O)=O)c2)cc2cc(NC(=O)NCc3ccncc3)ccc21` [Example 38, N-{2-[3-(Methanesulfonyl)phenyl]-1-methyl-1H-indol-5-yl}-N′-[(pyridin-4-yl)methyl]urea]: the midpoint of the response, the EC50, lay at 620 nM.

On to `Cn1c(-c2ccccn2)cc2cc(NC(=O)NCc3ccncc3)ccc21` [Example 39, N-[1-Methyl-2-(pyridin-2-yl)-1H-indol-5-yl]-N′-[(pyridin-4-yl)methyl]urea], for which the concentration giving a half-maximal response (EC50) was found to be 530 nM.

For `O=C(NCc1ccncc1)Nc1ccc2c(c1)cc(-c1ccccc1)n2CC1COCCO1` (centres unmarked) [Example 40, N-{1-[(1,4-Dioxan-2-yl)methyl]-2-phenyl-1H-indol-5-yl}-N′-[(pyridin-4-yl)methyl]urea], it took 190 nM to reach a half-maximal effect (EC50).

Compound `CN(C)C(=O)n1c(-c2ccccc2)cc2cc(NC(=O)NCc3ccncc3)ccc21` [Example 41, N,N-Dimethyl-2-phenyl-5-({[(pyridin-4-yl)methyl]carbamoyl}amino)-1H-indole-1-carboxamide] had an EC50 of 290 nM.

The compound `Cn1c(-c2ccccc2)cc2cc(NC(=O)NCc3ccncc3)ccc21` [Example 42, N-(1-Methyl-2-phenyl-1H-indol-5-yl)-N′-[(pyridin-4-yl)methyl]urea] showed an EC50 of 100 nM.

As to `O=C(NCc1cnco1)Nc1ccc2cn(-c3ccccc3)nc2c1` [Example 43, N-[(1,3-Oxazol-5-yl)methyl]-N′-(2-phenyl-2H-indazol-6-yl)urea], the EC50 stood at 140 nM.

In the case of `O=C(NCc1ccncc1)Nc1ccc2cn(-c3cccc(OC(F)F)c3)nc2c1` [Example 44, N-{2-[3-(Difluoromethoxy)phenyl]-2H-indazol-6-yl}-N′-[(pyridin-4-yl)methyl]urea], the EC50 came out at 110 nM.

`COc1cccc(-c2cc3ccc(NC(=O)NCc4ccncc4)cn3n2)c1` [Example 45, N-[2-(3-Methoxyphenyl)pyrazolo[1,5-a]pyridin-6-yl]-N′-[(pyridin-4-yl)methyl]urea] gave an EC50 of 60 nM.

The compound `CC(C)Cn1ncc2cc(NC(=O)NCc3ccncc3)ccc21` [Example 46, N-[1-(2-Methylpropyl)-1H-indazol-5-yl]-N′-[(pyridin-4-yl)methyl]urea] registered a concentration giving a half-maximal response (EC50) of 790 nM.

`COCCN1CC(c2ccccc2)Oc2cc(NC(=O)NCc3ccncc3)ccc21` (centres unmarked) [Example 48, N-[4-(2-Methoxyethyl)-2-phenyl-3,4-dihydro-2H-1,4-benzoxazin-7-yl]-N′-[(pyridin-4-yl)methyl]urea] came in with an EC50 of 650 nM.

Compound `CCNC(=O)N1CC(c2ccccc2Cl)Oc2cc(NC(=O)NCc3ccncc3)ccc21` (centres unmarked) [Example 49, 2-(2-Chlorophenyl)-N-ethyl-7-({[(pyridin-4-yl)methyl]carbamoyl}amino)-2,3-dihydro-4H-1,4-benzoxazine-4-carboxamide] displayed an EC50 of 130 nM.

Values taken from patent US11918568B2, “Fused ring compound having urea structure” (DAIICHI SANKYO COMPANY, LIMITED, priority 2018, dated 2024).
